Measured values taken from patent publication US10252989B2, “Picolinamides with fungicidal activity” (DOW AGROSCIENCES LLC, priority 2014, dated 2019).
Read-outs that look alike come from different tables or passages of the source.

Legend:
Zymoseptoria tritici = assay: Fungicidal activity: leaf blotch of wheat (SEPTTR), disease control on wheat seedlings; assay type: in vivo; conditions: for pest or weed control at 121.5 g/ha: Low-volume cereal activity at 121.5 g/H, wheat leaf blotch
Procedure: (§1) All fungicides were evaluated using the aforementioned method for their activity vs. all target diseases. Wheat leaf blotch and brown rust activity were also evaluated using track spray applications, in which case the fungicides were formulated as EC formulations, containing 0.1% Trycol 5941 in the spray solutions. Wheat plants (variety Yuma) were grown from seed in a greenhouse in 50% mineral soil/50% soil-less Metro mix until the first leaf was fully emerged, with 7-10 seedlings per pot. These plants were inoculated with an aqueous spore suspension of Zymoseptoria tritici either prior to or after fungicide treatments. After inoculation the plants were kept in 100% relative humidity (one day in a dark dew chamber followed by two to three days in a lighted dew chamber at 20° C.) to permit spores to germinate and infect the leaf. The plants were then transferred to a greenhouse set at 20° C. for disease to develop. When disease symptoms were fully expressed on the 1st leaves of untreated plants, infection levels were assessed on a scale of 0 to 100 percent disease severity. Percent disease control was calculated using the ratio of disease severity on treated plants relative to untreated plants.

Puccinia triticina = assay: Fungicidal activity: wheat brown rust (PUCCRT), disease control on wheat seedlings; assay type: in vivo; conditions: Low-volume cereal activity at 121.5 g/H
Procedure: as §1, with “plants. Example B: Evaluation of Fungicidal Activity: Wheat Brown Rust (Puccinia triticina; Synonym: Puccinia recondita f. sp. tritici; Bayer code PUCCRT) Wheat plants (variety Yuma) were grown from seed in a greenhouse in 50% mineral soil/50% soil-less Metro mix until the first leaf was fully emerged, with 7-10 seedlings per pot. These plants were inoculated with an aqueous spore suspension of Puccinia triticina either prior to or after fungicide treatments. […] The plants were then transferred to a greenhouse set at 24° C. for disease to develop. Fungicide formulation, application and disease assessment followed the procedures as described in the Example A.” for “plants.”

[1] = 24 h, 1 Day Protectant, read-out: SEPTTR 1DP disease control rating
[2] = 72 h, 3 Day Curative, read-out: SEPTTR 3DC disease control rating
[3] = 24 h, 1 Day Protectant, read-out: PUCCRT 1DP disease control rating
[4] = 72 h, 3 Day Curative, read-out: PUCCRT 3DC disease control rating

Compound | pest or weed control at 100 ppm (Zymoseptoria tritici; 72 h, High-volume cereal activity at 100 ppm, 3 Day Curative, wheat seedlings, read-out: SEPTTR 3DC disease control rating) [%] | pest or weed control at 121.5 g/ha (Zymoseptoria tritici; [1]) [%] | pest or weed control at 121.5 g/ha (Zymoseptoria tritici; [2]) [%] | pest or weed control at 121.5 g/ha (Puccinia triticina; [3]) [%] | pest or weed control at 121.5 g/ha (Puccinia triticina; [4]) [%]
COc1ccnc(C(=O)N[C@@H](C)C(=O)O[C@@H](C)[C@H](Cc2ccccc2)c2ccccc2)c1O [Compound 119] | 0 to 80 | – | – | – | –
CCCC[C@@H]([C@H](C)OC(=O)[C@H](C)NC(=O)c1nccc(OC)c1OC(C)=O)[C@@H](CC)Oc1ccccc1 [Compound 190] | – | 80 to 100 | 80 to 100 | 80 to 100 | 80 to 100
CC[C@H](NC(=O)c1nccc(OC)c1OC(C)=O)C(=O)O[C@@H](C)C(Cc1ccc(OC)cc1)Cc1ccc(OC)cc1 [Compound 273] | – | 80 to 100 | 0 to 80 | 0 to 80 | 0 to 80
